# In patent publication US20220184003A1, “Formulations of Cannabidiol Derivatives and Their Use as Modulators of Cannabinoid Receptor Type 2 (CB2)” (EMERALD HEALTH PHARMACEUTICALS INC, priority 2019, published 2022):
# Like-named read-outs stand apart in the source and are kept apart here.
# How the values were obtained:
# [1] = test system: Experimental Autoimmune Encephalomyelitis (EAE) model; experiment: Experimental autoimmune encephalomyelitis model; assay type: in vivo, C57BL/6 female mice
# Description: EAE was induced in C57BL/6 female mice at 6-8 weeks of age by subcutaneous immunization with MOG35-55 (300 μg: peptide synthesis section, CBM, CSIC. Madrid, Spain) and 200 μg of Mycobacterium tuberculosis (H37Ra Difco, Franklin Lakes, N.J., USA) in a 1:1 mix with […]. On the same day and 2 days later, mice were injected intraperitoneally with 200 ng of pertussis toxin (Sigma) in 0.1 mL PBS. […] The mice were examined daily for clinical signs of EAE and disease scores were measured as follows: 0, no disease; 1, limb tail; 2, limb tail and hind limb weakness; 3, hind limb paralysis; 4, hind limb and front limb paralysis; 5, moribund and death. All animals were sacrificed at 28 days for further analysis,
# Mice were anesthetized by i.p. administration with a ketamine-xylazine solution and they were transcardially perfused with saline 0.9%. The spinal cord was obtained by extrusion with saline. […]
# For IHC analysis, free-floating thoracic spinal cord (50 μm) sections were washed with 0.1M PB. […] Samples were photographed, digitalized using a Leica DFC420c camera and analyzed using Image J software. Myelin integrity was analyzed using the Hito CryoMyelmStain™ Kit (Gold phosphate complex Myelin Staining Kit) following manufacturer's recommendation (Hitobiotech Corp., Kingsport, Tenn., USA). […]
# [2] = physchem; assay type: physicochemical; details: oil or lipid
# Description: The solubility of a compound is an important factor in determining its absorption from the gastrointestinal tract and ultimately its oral bioavailability. First it was determined the solubility of VCE-004.8 in a collection of different solvents (e.g., aqueous, lipidic, organic, etc.). Additionally, a test of stability of VCE-004.8 in selected solvents was also used as a criterion for selection of the best solvents.
# [3] = Solvent shift method in SGF and SIF; assay type: physicochemical; details: for API concentration in solution: SIF
# Description: These experiments applied to a 5 mg/mL solution of VCE-004.8 in DMSO, of which 80 μL was added to 4 mL polymer solutions prepared in simulated intestinal fluid (SIF) and simulated gastric fluid (SGF). Subsequently the samples were incubated at 25° C. under continuous stirring, and after 0.5, 1, 2 and 4 hr, an aliquot was taken, filtered and analyzed by HPLC to determine the VCE-004.8 concentration in solution. Results are presented in FIG. 11 (SGF) and FIG. 12 (SIF).
# [4] = physchem; assay type: physicochemical; details: for solubility at 24 h / solubility at 24 hr: thermodynamic from solid
# Description: A quantitative thermodynamic solubility determination on VGE-004.8 was performed. Suspensions of VCE-004.8 were prepared in different pharmaceutical vehicles and organic solvents. The organic solvents, lipid and co-solvent vehicles consisted of pure solvent or lipid, while the cyclodextrin solutions were prepared in phosphate buffer pH 7.0. […] The concentration of VCE-004.8 in solution was determined by HPLC analysis.
# [5] = Stability of VCE-004.8 during phytosomization (reflux in ethyl acetate); assay type: physicochemical; details: area %
# Description: FIG. 8 depicts a stability of VCE-004.8 during phytosomization, at reflux in ethyl acetate at different times (45 min, 6 hr and 24 hr).
# A preliminary investigation of the compound stability gave indication that the active principle is stable in the process conditions, although an impurity peak not detected in the starting material and almost neglectable at […], increased after 6 hr (1.7% in area %) and grew after 24 hr (6.2% in area %), as shown in FIG. 8.
# [6] = Turbidimetric aqueous solubility (estimated precipitation range); assay type: physicochemical; details: aqueous solubility test at 37° C.
compound,measurement,setting,value
"C=C(C)C1CCC(C)=C[C@H]1C1=C(O)C(=O)C(CCCCC)=C(NCc2ccccc2)C1=O (stereo partly drawn) [VCE-004.8, (1′R,6′R)-3-(Benzylamine)-6-hydroxy-3′-methyl-4-pentyl-6′-(prop-1-en-2-yl)[1,1′-bi(cyclohexane)]-2′,3,6-triene-2,5-dione]",microglial reactivity and infiltration of inflammatory cells,"[1]; EAE animals, myelin structure preserved",significantly reduced
same,therapeutic effect in EAE model,"[1]; doses of 5 mg/kg, 10 mg/kg, and 20 mg/kg",highly significant therapeutic effect
same,solubility,[2]; 25 °C,17.7 mg/mL
same,solubility,[2]; 37 °C,34.5 mg/mL
same,VCE-004.8 concentration in solution,"[3]; SGF, TGPS solution, after 4 hr, 25° C.",about 0.03 mg-mL
same,API concentration in solution,"[3]; Eudragit L100, supersaturation for at least 1 hr",approximately 60 μg/mL
same,API concentration in solution,"[3]; PVP K30, supersaturation for at least 1 hr",approximately 60 μg/mL
same,API concentration in solution,"[3]; all the HPMC derivates (except for HPMC as is), from 0.5 to 1 hr",approximately 60 μg/mL
same,Solubility class,[4],practically insoluble
same,solubility at 24 h,"[4]; 25 °C, oil or lipid, Solubility",35.7 mg/mL
same,solubility at 24 h,"[4]; 25 °C, oil or lipid, Solubility class (Ph. Eur.)",33 to 100 mg/mL
same,solubility at 24 h,"[4]; 25 °C, pH 1, simulated gastric fluid, Solubility",< 0.008 mg/mL
same,solubility at 24 h,"[4]; 25 °C, pH 1, simulated gastric fluid, Solubility class (Ph. Eur.)",< 0.1 mg/mL
same,solubility at 24 h,"[4]; 25 °C, pH 2, aqueous buffer, Solubility",< 0.008 mg/mL
same,solubility at 24 h,"[4]; 25 °C, pH 5, aqueous buffer, Solubility",< 0.008 mg/mL
same,solubility at 24 h,"[4]; 25 °C, pH 5, aqueous buffer, Solubility class (Ph. Eur.)",< 0.1 mg/mL
same,solubility at 24 hr,"[4]; 25 °C, pH 7, aqueous buffer, Solubility",< 0.008 mg/mL
same,solubility at 24 hr,"[4]; 25 °C, pH 7, aqueous buffer, Solubility class (Ph. Eur.)",< 0.1 mg/mL
same,solubility at 24 h,"[4]; 25 °C, pH 7, aqueous with cosolvent or surfactant or cyclodextrin, Solubility class (Ph. Eur.)",< 0.1 mg/mL
same,solubility at 24 hr,"[4]; 25 °C, pH 9, aqueous buffer, Solubility",< 0.008 mg/mL
same,solubility at 24 hr,"[4]; 25 °C, pH 9, aqueous buffer, Solubility class (Ph. Eur.)",< 0.1 mg/mL
same,solubility at 24 h,"[4]; 37 °C, oil or lipid, Solubility",23.7 mg/mL
same,Solubility class (Ph. Eur.),[4]; pH 2,Practicalty insoluble
same,Solubility class,[4]; pH 7,practically insoluble
same,impurity peak,[5]; after 6 hr at reflux in ethyl acetate,1.7%
same,impurity peak,[5]; after 24 hr at reflux in ethyl acetate,6.2%
same,"Estimated Precipitation Range, Calculated Mid-range",[6],<6.5 µM
same,"Estimated Precipitation Range, Lower Bound",[6],<1 µM
same,"Estimated Precipitation Range, Upper Bound",[6],6.5 µM
